# Molecular target: T1, Human red blood cell S20 proteasome (Homo sapiens, UniProt P28074)
# T1 construct: host or cells: human red blood cells (native tissue preparation)
# Assay: Proteasome inhibition assay
# Format: biochemical
# Settings: not given
# Description: The test compound is diluted at various concentrations in 2.5% DMSO in a polypropylene 96 well plate. […] The diluted working solution (10 μl/well) is transferred into a polypropylene 96 well plate. The assay buffer consists of 50 mM Tris-HCl (pH 8.0), 0.5 mM EDTA, 0.005% TritonX-100, 0.005% SDS, prepared as a stock solution at 10× concentration. The peptide substrate (Suc-Leu-Leu-Val-Tyr-MCA; 3120v; Peptide Institute; Osaka, Japan) is stored at 10 mM in 100% DMSO. […] The compound and the substrate are preincubated for 10 min at room temperature. Then the mixture of the compound and the substrate (10 μl/well) is transferred to a black non-coated 384 well assay plate (Nunc) and autofluorescence emission is measured at 460 nm (λex, 360 nm) by using a ARVO fluorescence plate leader (Perkin Elmer, Tokyo, Japan).
# Human red blood cell S20 proteasome are obtained from Affinity research products Ltd (Cat#PW8720; Exeter, UK) and stored at −80° C. The proteasome is diluted 1 in 1000 with 1× concentration of the assay buffer and 10 μl is added to the substrates and the inhibitor mixture in the plate. The proteolytic reaction is performed at room temperature. The fluorescence emission is continuously measured for 90 min. IC50 values of the compounds are determined at initial velocity of the reaction.
row,SMILES,IC50
1,"CCCCCC[C@H]1C(=O)N[C@@]2([C@@H](O)[C@@H]3C=CCCC3)C(=O)O[C@@]12C [Example 1, (1R,4R,5S)-1-[(S)-(1S)-2-cyclohexen-1-yl(hydroxy)methyl]-4-hexyl-5-methyl-6-oxa-2-aza-bicyclo[3.2.0]heptane-3,7-dione]",1 nM
2,"CCCCCC[C@H]1C(=O)N[C@](C(=O)SCCC(=O)OC)([C@@H](O)[C@@H]2C=CCCC2)[C@@]1(C)O [Example 12, 3-[2-(Cyclohex-2-enyl-hydroxy-methyl)-4-hexyl-3-hydroxy-3-methyl-5-oxo-pyrrolidine-2-carbonylsulfanyl]-propionic acid methyl ester]",0.2 nM

# Same assay, conditions: substrate Suc-Leu-Leu-Val-Tyr-MCA; room temperature; IC50 determined at initial velocity of the reaction; read-out: IC50
row,SMILES,IC50
1,"CCCCCC(O)[C@H]1C(=O)N[C@](C(=O)O)(C(O)[C@@H]2C=CCCC2)[C@@]1(C)O (stereo partly drawn) [Example 4, (3S,4R)-2-[(S)-(1S)-2-cyclohexen-1-yl(hydroxy)methyl]-3-hydroxy-4-[1-hydroxy-hexyl]-3-methyl-5-oxo-D-proline]",305 nM
2,"CCCCCC[C@H]1C(=O)N[C@](C(=O)SCc2ccccc2)([C@@H](O)C2CCCCC2)[C@@]1(C)O [Example 17, 2-(Cyclohexyl-hydroxy-methyl)-4-hexyl-3-hydroxy-3-methyl-5-oxo-pyrrolidine-2-carbothioic acid S-benzyl ester]",106 nM

# System: not given
# Assay: not given
# Settings: not given
row,SMILES,melting point
1,CCCCCC(O)[C@H]1C(=O)N[C@@]2(C(O)[C@@H]3C=CCCC3)C(=O)O[C@@]12C (stereo partly drawn),144 °C
2,CCCCCC[C@H]1C(=O)N[C@](C(=O)SCc2ccccc2)([C@@H](O)[C@@H]2C=CCCC2)[C@@]1(C)O (stereo in doubt),138 °C
3,CCCCCC[C@H]1C(=O)N[C@](C(=O)SCCNC(C)=O)([C@@H](O)[C@@H]2C=CCCC2)[C@@]1(C)O (stereo in doubt),82 °C
4,CCCCCC[C@H]1C(=O)N[C@](C(=O)SC2CCCCC2)([C@@H](O)[C@@H]2C=CCCC2)[C@@]1(C)O (stereo in doubt),85 °C
5,CCCCCC(O)[C@H]1C(=O)N[C@](C(=O)SCCNC(C)=O)([C@@H](O)[C@@H]2C=CCCC2)[C@@]1(C)O (stereo in doubt),80 °C
6,CCCCCC(O)[C@H]1C(=O)N[C@](C(=O)SCC(=O)OC)([C@@H](O)[C@@H]2C=CCCC2)[C@@]1(C)O (stereo in doubt),75 °C
7,CCCCCC[C@H]1C(=O)N[C@](C(=O)SCCC(=O)OC)([C@@H](O)C2CCCCC2)[C@@]1(C)O (stereo in doubt),132 °C
8,CCCCCC[C@H]1C(=O)N[C@@]2([C@@H](O)C3CCCCC3)C(=O)O[C@@]12C (stereo in doubt),167 °C
9,"CCCCCC(O)[C@H]1C(=O)N[C@](C(=O)SCc2ccccc2)([C@@H](O)[C@@H]2C=CCCC2)[C@@]1(C)O (stereo in doubt) [Example 14, 2-(Cyclohex-2-enyl-hydroxy-methyl)-3-hydroxy-4-(1-hydroxy-hexyl)-3-methyl-5-oxo-pyrrolidine-2-carbothioic acid S-benzyl ester]",123 °C
10,"CCCCCC[C@H]1C(=O)N[C@](C(=O)SCCC(=O)OC)([C@@H](O)[C@@H]2C=CCCC2)[C@@]1(C)O [Example 12, 3-[2-(Cyclohex-2-enyl-hydroxy-methyl)-4-hexyl-3-hydroxy-3-methyl-5-oxo-pyrrolidine-2-carbonylsulfanyl]-propionic acid methyl ester]",64 °C
11,"CCCCCC[C@H]1C(=O)N[C@](C(=O)SCc2ccccc2)([C@@H](O)C2CCCCC2)[C@@]1(C)O [Example 17, 2-(Cyclohexyl-hydroxy-methyl)-4-hexyl-3-hydroxy-3-methyl-5-oxo-pyrrolidine-2-carbothioic acid S-benzyl ester]",181 °C

# — patent US20110015248A1, “SUBSTITUTED HETEROCYCLES” (INTERMED DISCOVERY GMBH, priority 2003, published 2011)
